Test results: patent US20090209605A1, “NEMATICIDAL COMPOSITIONS” (Devgen N.V., priority 2004, published 2009)

Columns and labels:
Assay type in all cases: in vivo
Meloidogyne nematodes = test: Pot Assay 2: Meloidogyne infection of tomato, % infestation of roots; conditions: RATE 0.05 mg; tomato in infested soil
Description: The soil used in this assay originated from a plot, heavily infested with Meloidogyne nematodes. Part of this soil was sterilized by autoclaving and was used as negative control. Sandy soil, which was not infested with nematodes, was pursued from a commercial source.
Plastic seedling trays with wells of 60 ml capacity were filled with about 40 ml of soil per well. 5 ml of water per well was used for irrigation.
Compounds as described herein were tested in 4 different rates and with 12 replicates for each concentration. The compounds as described herein were stored as dry films of 4 different concentrations. The day of the application of the compounds, all the dry films were dissolved in 60 ml water and poured into the 12 replicate wells: 5 ml per well. Every tray of 12 wells was identified with a label, indicating compound and concentration used. The 4 final rates in the soil of the tested compound were approximately 0.05 mg, 0.20 mg, 1 mg and 5 mg. These amounts translate to field application rates respectively as 30, 120, 600 and 3000 g per hectare.
3-5 days after application of the tested compound, tomato seeds (cv. Rio Grande) were sown in the wells by hand, at about 2 cm deep. A light cover of vermiculite on the surface was used to avoid dehydration. Plants were irrigated by micro-nebulization 3-4 times per week at a rate of 3 L/m^2, weeded by hand and treated with fertilizers, fungicide and insecticides when needed.
Their resistance against nematode infection was monitored and the efficacy of compounds described herein as a nematicide was measured. Furthermore the phytotoxicity of the test compounds was evaluated.
Efficacy of the compounds described herein as nematicide was measured by giving the roots a percentage of infestation measured as follows. Plants were grown to reach good development of the roots, which corresponds to plants grown to about 10 cm high at about one month after emergence. After removal of the soil from the roots by rinsing with water, the roots were visually inspected and root galls were counted on 4 plants of the set of 12 replicate plants.
Positive control plants were treated with a 10 micromolar concentration of oxamyl (Vydate, 10% SL; the rate of 10 micromolar corresponds to a commercial rate of 20 l/ha), a known nematicide. Negative controls involved double negative controls (no compound, sterile soil), and single negative controls (no compound, with nematode infested soil).

Heterodera nematode = test: Pot Assay 3: Heterodera infection of sugar beet, crop vigor and crop height; conditions: infested soil
Source text: The soil used in this assay originated from a Heterodera nematode infested sugar plot of which the infestation was confirmed by means of several soil analyses. Each pot was filled up with a soil mixture composed as follows: a) the infested soil was constituted by silt loam soil (about 600 g/pot) mixed with sterile peat (about 600 g/pot) and sterile cork (about 200 g/pot); b) the sterile soil was instead constituted only by sterile peat (1200 g/pot) and sterile cork (200 g/pot).
(§1) Each compound or compound mixture as described herein was tested in 4 different rates with 4 replicates per rate. One pot per replicate was used in which 18 beava sugar beet seeds (variety GEA (KWS)) were sown. After crop germination, the number of plants was reduced to 10 plants. The 4 rates added to the soil of the tested compounds or compound mixtures were 0.05 mg, 0.20 mg, 1 mg and 5 mg. These amounts translate to field application rates respectively as 30, 120, 600 and 3000 g per hectare.
Efficacy of the compounds described herein as nematicide was measured by visual inspection of the crop vigor and the crop height. The crop vigor evaluation is based on a 0-100 scale, where 0 is “no vigor” and 100 is “maximum vigor”. The crop height development is based on a measurement, in cm, per plant, excluding the root system.
Positive control plants were treated with Oxamyl (Vydate 5 G, 5% gr) at a rate of 40 kg fp per ha. Negative controls involved single negative controls (no compound, with nematode infested soil; referenced as “Untreated 1”) and double negative controls (no compound, sterile soil; referenced as “Untreated 2”).

[1] = test system: Meloidogyne incognita nematodes; test: Pot Assay 1: Meloidogyne infection of potato, egg masses/galls on roots; conditions: potato in pot, week 8 after inoculation
Procedure, shortened: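 Potato (cv. Bintje) grown in sand pots at 14–18 °C in greenhouse. Compound in DMSO spread on sand one day before inoculation with ~1500 M. incognita juveniles; concentration assumes full diffusion in pot. Root galls counted 8 weeks post-inoculation, plant development also scored; triplicates, aldicarb and DMSO/untreated controls.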

[2] = test system: root-knot nematode (Meloidogyne spp); test: Nematicide field trial on tomato: root galling and yield; conditions: for Average root galling: 0-5 Lamberti scale
Description: Open field tomatoes (Lycopersicon esculentum, variety incas) were grown on sandy soil with a natural root-knot nematode (Meloidogyne spp) population. Soil samples, collected prior to planting, contained on average 113 J2 juveniles per 100 g soil. A program of 5 applications with intervals of about 14 days was started two days after transplantation.
An experimental pattern at Complete Randomized Blocks with four replicas was adopted. Besides the experimental products, each test also included an untreated control and a treatment with the standard commercial product VYDATE 10L (10%) applied in accordance to label instructions.
The read-outs are the average yield of the marketable tomatoes per plant (Table 7). The level of nematode attack of the root system at the time of harvesting was assessed by means of the lamberti scoring.

[3] = test system: sugar beet (variety GEA (KWS)); test: Pot Assay 3: phytotoxicity, number of sugar beet plants emerged
Description: as §1
Phytotoxicity assessments were carried by assessing any possible effects of the chemicals on the crop, such as chlorosis, yellowing, stunting, in comparison to the untreated control without nematodes.

[4] = Product Rate 4 (footnote g ai/ha)
[5] = Product Rate 8 (footnote g ai/ha)

**Q.** For `CCCCc1c(C)nc(NCC)nc1OS(=O)(=O)N(C)C` [XLIII], which “% INF. (% Infestation)” value (Meloidogyne nematodes) is on record?
**A.** 1.3%

**Q.** And the “crop height (cm)” value (Heterodera nematode; Rate 1 mg)?
**A.** 14 cm

**Q.** And the “crop vigor (max 100%)” value (Heterodera nematode; Rate 1 mg)?
**A.** 80%

**Q.** What about the “crop height (cm)” value (Heterodera nematode; Rate 5 mg) of the same compound?
**A.** 15 cm

**Q.** And the “crop vigor (max 100%)” value (Heterodera nematode; Rate 5 mg)?
**A.** 100%

**Q.** What about the “number of egg masses (galls) on roots, Replicate 3” value (“number of egg masses … Replicate 3” below) ([1]; 0.5 μM) of the same compound?
**A.** 30

**Q.** What about the “number of egg masses (galls) on roots, Replicate 2” value (“number of egg masses … Replicate 2” for short) ([1]; 2 μM) of the same compound?
**A.** 35

**Q.** What about the “number of egg masses … Replicate 3” value ([1]; 2 μM) of the same compound?
**A.** 25

**Q.** What about the “number of egg masses (galls) on roots, Replicate 1” value ([1]; 10 μM) of the same compound?
**A.** 15

**Q.** And the “number of egg masses … Replicate 2” value ([1]; 10 μM)?
**A.** 5

**Q.** And the “number of egg masses … Replicate 3” value ([1]; 10 μM)?
**A.** 10

**Q.** What about the “number of egg masses (galls) on roots, Replicate 1” value ([1]; 50 μM) of the same compound?
**A.** 0

**Q.** What about the “number of egg masses … Replicate 2” value ([1]; 50 μM) of the same compound?
**A.** 15

**Q.** And the “number of egg masses … Replicate 3” value ([1]; 50 μM)?
**A.** 5

**Q.** And the “Average yield of marketable fruits” value [2, 4]?
**A.** 1.28 kg/plant/pot

**Q.** And the Average root galling [2, 4]?
**A.** 1.1

**Q.** What about the “Average yield of marketable fruits” value [2, 5] of the same compound?
**A.** 1.25 kg/plant/pot

**Q.** And the Average root galling [2, 5]?
**A.** 1.6

**Q.** What about the “# crops emerged (max 18)” value ([3]; Rate 1 mg) of the same compound?
**A.** 18

**Q.** And the “# crops emerged (max 18)” value ([3]; Rate 5 mg)?
**A.** 18
